Source: patent US12496329B2, “Methods of using and compositions including an incretin analog” (Eli Lilly and Company, priority 2021, dated 2025)
Where two headings read alike, the source gives them in different places.

How the values were obtained:
[1] = Stability of analyte in stored plasma samples (bioanalytical validation); assay type: in vitro ADME, human; conditions: about -20° C. and about −70° C.
Description: Bioanalytical methods: plasma samples are analyzed at Q2 Solutions (Ithaca, NY). The samples are analyzed for the GGG tri-receptor agonist using a validated liquid chromatography high resolution mass spectrometry method. The lower limit of quantification is 1.00 ng/mL and the upper limit of quantification is 500.00 ng/ml. Samples above a limit of quantification are diluted and reanalyzed to yield results within the calibrated range. The intra-assay accuracy (% relative error) during validation ranges from −6.3% to 15.7%. The intra-assay precision (% relative standard deviation) during validation is ≤14.7%. The GGG tri-receptor agonist is stable for up to 96 days when stored at about-20° C. and about −70° C.

[2] = MAD study in individuals with diabetes: plasma pharmacokinetics; assay type: in vivo, human; conditions: for AUC(0-inf) / Cmax / Tmax / half-life / CL/F: both sexes, human, plasma
Description: (§1) Studies are designed to evaluate the safety, tolerability, PD and PK of the GGG tri-receptor agonist (SEQ ID NO:1) in individuals with diabetes. The MAD study is a randomized, investigator- and participant-blind, placebo-controlled, multiple-ascending dose, single-site study conducted in individuals with diabetes (i.e., females or males aged 20-70 years, inclusive, with T2DM for at least 3 months and HbA1c at lead-in and screening of ≥7.0% and ≤10.5% and treated with diet and exercise alone or a stable dose of metformin for at least 3 months prior to screening, with stable body weight for 3 months prior to randomization and with a BMI of 23-50 kg/m^2 at screening).
(§2) Dose escalation of the GGG tri-receptor agonist is assessed over 12 weeks in cohorts with a starting dose of 0.5 mg. One cohort of 13 individuals is administered 0.5 mg for 12 weeks. A second cohort of 13 individuals is administered 1.5 mg for 12 weeks. A third cohort of 15 individuals is administered 3.0 mg for 12 weeks. A fourth cohort of 15 individuals is administered 3.0 mg for 4 weeks and then administered 6.0 mg for 8 weeks. A fifth cohort of 16 individuals is administered 3.0 mg for 2 weeks, administered 6.0 mg for 2 weeks, administered 9.0 mg for 4 weeks, and then administered 12 mg for 4 weeks. Alternate dose increment steps may be introduced based on emerging safety and tolerability data from the preceding cohorts, and the dose increment steps can be reduced. As a non-limiting example, in Cohort 4, escalation from starting dose of 3 mg may occur via a step-through dose of 4.5 mg before attaining 6 mg, in Cohort 5, escalation from starting dose of 3 to 12 mg may occur via an additional step through dose level of 4.5 mg, prior to the planned doses 6 and 9 mg. In addition to these proposed alternate regimens in Cohort 4 and Cohort 5, planned dose for escalation between cohorts and within cohorts may be further reduced if warranted by safety or tolerability data.
Blood samples are collected on Day 1 at pre-dose and at 12 hr, 24 hr, 48 hr (Day 2) and 72 hr post-dose, as well as at pre-dose on Days 7, 14 and 21, to determine plasma concentration of the GGG tri-receptor agonist. Blood samples also are collected on Day 29 at pre-dose and at 12 hr, 24 hr, 48 hr and 72 hr post-dose, as well as at pre-dose on Days 36, 43 and 50, to determine plasma concentration of the GGG tri-receptor agonist. Blood samples also are collected on Day 57 at pre-dose and at 12 hr, 24 hr, 48 hr and 72 hr post-dose, as well as at pre-dose on Days 64 and 71, to determine plasma concentration of the GGG tri-receptor agonist. Blood samples also are collected on Day 78 at pre-dose and at 12 hr, 24 hr, 48 hr and 72 hr post-dose, as well as at pre-dose on Day 85, to determine plasma concentration of the GGG tri-receptor agonist. Human plasma samples from individuals administered the GGG tri-receptor agonist are analyzed at Q2 Solutions (Ithaca, NY). Concentrations of the GGG tri-receptor agonist are assayed using a validated liquid chromatography high resolution mass spectrometry method, where the lower limits of quantification are 1 ng/ml or 3 ng/ml and the upper limit of quantification is 500 ng/mL.
Blood samples are likewise collected at Weeks 14 and 16 for PK analysis. As above, plasma concentrations are used to compute PK parameters using standard non-compartmental methods in a validated software program (Phoenix WinNonlin Version 8.1).

[3] = MAD study in individuals with diabetes: safety and tolerability; assay type: in vivo, human
Description: as §1, §2
In the event of drug hypersensitivity reactions (immediate or nonimmediate), samples are collected for antidrug antibody (ADA) analysis as close to the onset of the event as possible, at the resolution of the event, and 30 days following the onset of the event. Samples are analyzed using a validated electrochemiluminescence immunosorbent assay at BioAgilytix Labs (Durham, NC).

[4] = 12 mg, 3.0, 6.0, 9.0, 12.0 mg QW, Day 1
[5] = 12 mg, 3.0, 6.0, 9.0, 12.0 mg QW, Day 29
[6] = 12 mg, 3.0, 6.0, 9.0, 12.0 mg QW, Day 57
[7] = 12 mg, 3.0, 6.0, 9.0, 12.0 mg QW, Day 78

CC[C@H](C)[C@H](NC(=O)[C@H](Cc1ccccc1)NC(=O)[C@H](C)NC(=O)C(C)(C)NC(=O)[C@H](CCC(N)=O)NC(=O)[C@H](C)NC(=O)[C@H](CCCCNC(=O)COCCOCCNC(=O)CC[C@H](NC(=O)CCCCCCCCCCCCCCCCCCC(=O)O)C(=O)O)NC(=O)[C@H](CCCCN)NC(=O)[C@H](CC(=O)O)NC(=O)[C@H](CC(C)C)NC(=O)[C@](C)(CC(C)C)NC(=O)[C@@H](NC(=O)[C@H](CO)NC(=O)[C@H](Cc1ccc(O)cc1)NC(=O)[C@H](CC(=O)O)NC(=O)[C@H](CO)NC(=O)[C@@H](NC(=O)[C@H](Cc1ccccc1)NC(=O)[C@@H](NC(=O)CNC(=O)[C@H](CCC(N)=O)NC(=O)C(C)(C)NC(=O)[C@@H](N)Cc1ccc(O)cc1)[C@@H](C)O)[C@@H](C)O)[C@@H](C)CC)C(=O)N[C@@H](CCC(=O)O)C(=O)N[C@@H](Cc1ccc(O)cc1)C(=O)N[C@@H](CC(C)C)C(=O)N[C@@H](CC(C)C)C(=O)N[C@@H](CCC(=O)O)C(=O)NCC(=O)NCC(=O)N1CCC[C@H]1C(=O)N[C@@H](CO)C(=O)N[C@@H](CO)C(=O)NCC(=O)N[C@@H](C)C(=O)N1CCC[C@H]1C(=O)N1CCC[C@H]1C(=O)N1CCC[C@H]1C(=O)N[C@@H](CO)C(N)=O [GGG tri-receptor agonist, Y-Aib-QGTFTSDYSI-αMeL-LDKK((2-[2-(2-amino-ethoxy)-ethoxy]-acetyl)-(γGlu)-CO-(CH2)18-CO2H)AQ-Aib-AFIEYLLEGGPSSGAPPPS-NH2]
stability when stored [1]: up to 96 days | AUC (0-τ) and Cmax dose proportionality ([2]; 3.0, 6.0 and 12.0 mg, Week 12): increase in a dose-proportional manner | AUC(0-inf) ([2]; 0.5 mg, 0.5 mg QW, Day 1): 7180 ng·h/mL | Cmax ([2]; 0.5 mg, 0.5 mg QW, Day 1): 54.1 ng/mL | Tmax ([2]; 0.5 mg, 0.5 mg QW, Day 1): 48 h | AUC(0-inf) ([2]; 0.5 mg, 0.5 mg QW, Day 29): 14400 ng·h/mL | Cmax ([2]; 0.5 mg, 0.5 mg QW, Day 29): 118 ng/mL | Tmax ([2]; 0.5 mg, 0.5 mg QW, Day 29): 23.8 h | AUC(0-inf) ([2]; 0.5 mg, 0.5 mg QW, Day 57): 11800 ng·h/mL | Cmax ([2]; 0.5 mg, 0.5 mg QW, Day 57): 86.8 ng/mL | Tmax ([2]; 0.5 mg, 0.5 mg QW, Day 57): 36 h | AUC(0-inf) ([2]; 1.5 mg, 1.5 mg QW, Day 1): 22600 ng·h/mL | Cmax ([2]; 1.5 mg, 1.5 mg QW, Day 1): 228 ng/mL | Tmax ([2]; 1.5 mg, 1.5 mg QW, Day 1): 24 h | AUC(0-inf) ([2]; 1.5 mg, 1.5 mg QW, Day 29): 35900 ng·h/mL | Cmax ([2]; 1.5 mg, 1.5 mg QW, Day 29): 252 ng/mL | Tmax ([2]; 1.5 mg, 1.5 mg QW, Day 29): 24 h | AUC(0-inf) ([2]; 3 mg, 3.0 mg QW, Day 1): 33800 ng·h/mL | Cmax ([2]; 3 mg, 3.0 mg QW, Day 1): 290 ng/mL | Tmax ([2]; 3 mg, 3.0 mg QW, Day 1): 23.8 h | AUC(0-inf) ([2]; 3 mg, 3.0 mg QW, Day 29): 68100 ng·h/mL | Cmax ([2]; 3 mg, 3.0 mg QW, Day 29): 531 ng/mL | Tmax ([2]; 3 mg, 3.0 mg QW, Day 29): 12.2 h | AUC(0-inf) ([2]; 3 mg, 3.0 mg QW, Day 57): 66300 ng·h/mL | Cmax ([2]; 3 mg, 3.0 mg QW, Day 57): 562 ng/mL | Tmax ([2]; 3 mg, 3.0 mg QW, Day 57): 24 h | AUC(0-inf) ([2]; 3 mg, 3.0 mg QW, Day 78): 70100 ng·h/mL | Cmax ([2]; 3 mg, 3.0 mg QW, Day 78): 571 ng/mL | Tmax ([2]; 3 mg, 3.0 mg QW, Day 78): 12.2 h | half-life ([2]; 3 mg, 3.0 mg QW, Day 78, read-out: t½ (converted)): 137 h | AUC(0-inf) ([2]; 6 mg, 3.0, 6.0 mg QW, Day 1): 34500 ng·h/mL | Cmax ([2]; 6 mg, 3.0, 6.0 mg QW, Day 1): 292 ng/mL | Tmax ([2]; 6 mg, 3.0, 6.0 mg QW, Day 1): 24 h | AUC(0-inf) ([2]; 6 mg, 3.0, 6.0 mg QW, Day 29): 86400 ng·h/mL | Cmax ([2]; 6 mg, 3.0, 6.0 mg QW, Day 29): 711 ng/mL | Tmax ([2]; 6 mg, 3.0, 6.0 mg QW, Day 29): 12.1 h | AUC(0-inf) ([2]; 6 mg, 3.0, 6.0 mg QW, Day 57): 136000 ng·h/mL | Cmax ([2]; 6 mg, 3.0, 6.0 mg QW, Day 57): 1170 ng/mL | Tmax ([2]; 6 mg, 3.0, 6.0 mg QW, Day 57): 24 h | AUC(0-inf) ([2]; 6 mg, 3.0, 6.0 mg QW, Day 78): 137000 ng·h/mL | Cmax ([2]; 6 mg, 3.0, 6.0 mg QW, Day 78): 1060 ng/mL | Tmax ([2]; 6 mg, 3.0, 6.0 mg QW, Day 78): 24 h | half-life ([2]; 6 mg, 3.0, 6.0 mg QW, Day 78, read-out: t½ (converted)): 135 h | AUC(0-inf) [2, 4]: 31800 ng·h/mL | Cmax [2, 4]: 265 ng/mL | Tmax [2, 4]: 23.9 h | AUC(0-inf) [2, 5]: 150000 ng·h/mL | Cmax [2, 5]: 1320 ng/mL | Tmax [2, 5]: 23.8 h | AUC(0-inf) [2, 6]: 262000 ng·h/mL | Cmax [2, 6]: 2070 ng/mL | Tmax [2, 6]: 24 h | AUC(0-inf) [2, 7]: 293000 ng·h/mL | Cmax [2, 7]: 2410 ng/mL | Tmax [2, 7]: 23.9 h | half-life ([2]; 12 mg, 3.0, 6.0, 9.0, 12.0 mg QW, Day 78, read-out: t½ (converted)): 143 h | Tmax ([2]; MAD study, after dosing): 12 to 72 h | half-life ([2]; MAD study, read-out: mean half-life): ~144 h | half-life ([2]; subcutaneous, across all dose levels, read-out: geometric mean t½): 135 to 143 h | CL/F ([2]; 3.0 mg QW, Day 78): 0.713 mL/min | CL/F ([2]; 3.0, 6.0 mg QW, Day 78): 0.728 mL/min | CL/F ([2]; 3.0, 6.0, 9.0, 12.0 mg QW, Day 78): 0.683 mL/min | systolic blood pressure ([3]; 6.0 mg and 12.0 mg arms): dose-dependent decrease in systolic blood pressure | GI events (nausea, diarrhea, vomiting) ([3]; MAD study): mostly mild in severity and dose related | heart rate ([3]; MAD study): Dose-dependent increases in heart rate | tolerability ([3]; MAD study, 12 weeks QW): well tolerated | incidences of AEs ([3]; doses of ≥6.0 mg): increased incidences of AEs | safety concerns ([3]; multiple SC doses of 0.5 to 12.0 mg): no unexpected safety concerns | tolerability ([3]; once-weekly 0.5, 1.5 and 3.0 mg for 12 weeks): well tolerated
